This series is described as follows: HILIC, Waters Atlantis Premier BEH Z-HILIC, 100 × 2.1 mm, 1.7 µm, 40 °C, 0.17 mL/min, estimated dead time 1.3 min; A: water + 20 mM ammonium carbonate + 5 µM medronic acid; B: 10% water + 90% acetonitrile + 2 mM ammonium carbonate + 0.5 µM medronic acid; gradient (min/%B) 0/100 18/60 18.1/20 21.5/20 22/100 23.5/100 25.5/100. The settings on record: stereoisomer not certain.
Turning to `O=C(O)CCC(=O)C(=O)O` [2-Oxoglutaric acid], the LC retention time is 9.07 min.

For the compound `O=C(O)CCC(O)C(=O)O` (centres undefined) [2-hydroxy glutaric acid], the LC retention time was 9.81 min.

On to `Nc1ncnc2c1ncn2C1OC(COP(=O)(O)OP(=O)(O)O)C(O)C1O` (centres undefined) [ADP], for which the LC retention time was 11 min.

Turning to `Nc1ncnc2c1ncn2C1OC(COP(=O)(O)O)C(O)C1O` (centres undefined) [AMP], the LC retention time was 8.86 min.

On to `Nc1ncnc2c1ncn2C1OC(COP(=O)(O)OP(=O)(O)OP(=O)(O)O)C(O)C1O` (centres undefined) [ATP], for which the LC retention time was 13 min.

With `CC(=O)SCCNC(=O)CCNC(=O)C(O)C(C)(C)COP(=O)(O)OP(=O)(O)OCC1OC(n2cnc3c(N)ncnc32)C(O)C1OP(=O)(O)O` (centres undefined) [Acetyl-CoA], the LC retention time was 10.5 min.

Regarding `Nc1ncnc2c1ncn2C1OC(CO)C(O)C1O` (centres undefined) [Adenosine], the LC retention time is 4.21 min.

Regarding `O=C(O)CCCCC1SCC2NC(=O)NC21` (centres undefined) [Biotin], the LC retention time is 4.19 min.

Consider `C[N+](C)(C)CC(O)CC(=O)[O-]` (centres undefined) [Carnitine], for which the LC retention time was 9.73 min.

Regarding `O=C(O)CC(O)(CC(=O)O)C(=O)O` [Citric acid], the LC retention time was 13.9 min.

Turning to `CC(C)(COP(=O)(O)OP(=O)(O)OCC1OC(n2cnc3c(N)ncnc32)C(O)C1OP(=O)(O)O)C(O)C(=O)NCCC(=O)NCCS` (centres undefined) [CoenzymeA], the LC retention time is 11.9 min.

With `Cc1cc2nc3c(=O)[nH]c(=O)nc-3n(CC(O)C(O)C(O)COP(=O)(O)OP(=O)(O)OCC3OC(n4cnc5c(N)ncnc54)C(O)C3O)c2cc1C` (centres undefined) [FAD], the LC retention time is 7.12 min.

For `O=C(CO)C(O)C(O)C(O)COP(=O)(O)O` (centres undefined) [Fructose 6-phosphate], the LC retention time was 10.9 min.

For `O=P(O)(O)OCC1OC(O)(COP(=O)(O)O)C(O)C1O` (centres undefined) [Fructose-1,6-bisphosphate], the LC retention time is 15.2 min.

Consider `Nc1nc2c(ncn2C2OC(COP(=O)(O)OP(=O)(O)OP(=O)(O)O)C(O)C2O)c(=O)[nH]1` (centres undefined) [GTP], for which the LC retention time was 15.3 min.

In the case of `O=P(O)(O)OCC1OC(O)C(O)C(O)C1O` (centres undefined) [Glucose-6-phosphate], the LC retention time was 12.4 min.

Turning to `NC(CCC(=O)O)C(=O)O` (centres undefined) [Glutamic acid], the LC retention time is 9.15 min.

On to `NC(=O)CCC(N)C(=O)O` (centres undefined) [Glutamine], for which the LC retention time was 10.4 min.

Consider `O=P(O)(O)OCC(O)CO` (centres undefined) [Glycerol-3-phosphate], for which the LC retention time was 9.75 min.

On to `OCC1OC(O)C(O)C(O)C1O` (centres undefined) [Hexose], for which the LC retention time is 7.55 min.

For `O=C(O)CC(C(=O)O)C(O)C(=O)O` (centres undefined) [Isocitric acid], the LC retention time is 14.5 min.

As to `CCC(C)C(N)C(=O)O` (centres undefined) [Isoleucine], the LC retention time was 5.97 min.

With `CC(O)C(=O)O` (centres undefined) [Lactic Acid], the LC retention time is 2.96 min.

`CC(C)CC(N)C(=O)O` (centres undefined) [Leucine]: the LC retention time was 5.72 min.

For `NC(=O)C1=CN(C2OC(COP(=O)(O)OP(=O)(O)OCC3OC(n4cnc5c(N)ncnc54)C(O)C3O)C(O)C2O)C=CC1` (centres undefined) [NADH], the LC retention time is 8.45 min.

`NC(=O)c1ccc[n+](C2OC(COP(=O)(O)OP(=O)(O)OCC3OC(n4cnc5c(N)ncnc54)C(OP(=O)(O)O)C3O)C(O)C2O)c1` (centres undefined) [NADP]: the LC retention time was 13.4 min.

With `NC(=O)c1ccc[n+](C2OC(COP(=O)(O)OP(=O)(O)OCC3OC(n4cnc5c(N)ncnc54)C(O)C3O)C(O)C2O)c1` (centres undefined) [NAD], the LC retention time is 10.7 min.

For the compound `C=C(OP(=O)(O)O)C(=O)O` [PEP], the LC retention time was 13.8 min.

With `O=C(O)C(CO)OP(=O)(O)O` (centres undefined) [Phosphoglyceric acid A], the LC retention time is 12.2 min.

In the case of `O=C(O)CCC(=O)O` [Succinic Acid], the LC retention time was 9.16 min.

On to `O=C(CO)COP(=O)(O)O` [Triose phosphate], for which the LC retention time was 9.76 min.

With `CC(=O)NC1C(OP(=O)(O)OP(=O)(O)OCC2OC(n3ccc(=O)[nH]c3=O)C(O)C2O)OC(CO)C(O)C1O` (centres undefined) [UDP-GlcNAc], the LC retention time is 9.68 min.

Take `CCC(=O)OC(CC(=O)[O-])C[N+](C)(C)C` (centres undefined) [carnitine-C3]: the LC retention time was 6.63 min.

Turning to `O=C1CC(C(=O)O)NC(=O)N1` (centres undefined) [dihydroorotic acid], the LC retention time was 4.87 min.

Source of the values: the RepoRT retention time repository.
